In patent US20190375708A1 (VenatoRx Pharmaceuticals, Inc., priority 2018, published 2019):

Columns and labels:
[1] = In vitro cytotoxicity assay (MTT cell viability) in HepG2 cells; assay type: cell-based, human; details: human
How it was run: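 Viability measured by MTT conversion, absorbance at 492 nm, as percent of vehicle-treated wells. Compounds spanned 30 μM to 1.0 nM in half-log steps over a 7-day exposure of parental HepG2 cells; CC50 derived by 4-parameter curve fit.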

[2] = test system: HBV replication in HepAD38 cells; experiment: Anti-HBV replication assay in HepAD38 cells (QPCR of extracellular HBV DNA); assay type: cell-based, HBV (genotype D, serotype ayw); details: Hepatitis B virus, 168 h, 7 days incubation, extracellular HBV DNA by QPCR, read-out: Anti-HBV EC50
How it was run: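 Tet-off HepAD38, 7-day compound exposure ([…], 1 log10 steps, DMSO vehicle), 37 °C. Extracellular HBV DNA by QPCR, copies/mL via standard curve, % inhibition vs vehicle, EC50 by 4-parameter regression. Entecavir as positive control.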

## Cc1cc(NC(=O)c2c(C)c(C(=O)C(=O)NC3(C)CC[C@@H](O)[C@@H](O)C3)n(C)c2C)ccc1F (stereo partly drawn) [Example 702, 5-(2-(((3S,4R)-3,4-dihydroxy-1-methylcyclohexyl)amino)-2-oxoacetyl)-N-(4-fluoro-3-methylphenyl)-1,2,4-trimethyl-1H-pyrrole-3-carboxamide]
[1]
  CC50 at 7 days: > 30 µM
[2]
  EC50: < 0.05 µM

## Cc1cc(NC(=O)c2c(C)c(C(=O)C(=O)N[C@H]3CCc4nc(N)sc4C3)n(C)c2C)ccc1F [Example 75, (S)-5-(2-((2-amino-4,5,6,7-tetrahydrobenzo[d]thiazol-6-yl)amino)-2-oxoacetyl)-N-(4-fluoro-3-methylphenyl)-1,2,4-trimethyl-1H-pyrrole-3-carboxamide]
[1]
  CC50 at 7 days: 5 to 30 µM
[2]
  EC50: < 0.05 µM

## Cc1cc(NC(=O)c2c(C)c(C(=O)C(=O)N3[C@@H]4CC[C@H]3C[C@H](O)C4)n(C)c2C)ccc1F [Example 48, N-(4-fluoro-3-methylphenyl)-5-(2-((1R,3s,5S)-3-hydroxy-8-azabicyclo[3.2.1]octan-8-yl)-2-oxoacetyl)-1,2,4-trimethyl-1H-pyrrole-3-carboxamide]
[1]
  CC50 at 7 days: > 30 µM
[2]
  EC50: 0.05 to 0.499 µM

## Cc1cc(NC(=O)c2c(C)c(C(=O)C(=O)N[C@H](C(N)=O)C(C)C)n(C)c2C)ccc1F [Example 107, (S)-5-(2-((1-amino-3-methyl-1-oxobutan-2-yl)amino)-2-oxoacetyl)-N-(4-fluoro-3-methylphenyl)-1,2,4-trimethyl-1H-pyrrole-3-carboxamide]
[1]
  CC50 at 7 days: > 30 µM
[2]
  EC50: < 0.05 µM

## Cc1c(C(=O)Nc2ccc(F)c(F)c2)c(C)n(C)c1C(=O)C(=O)Nc1ccc(F)c(F)c1 [Example 293, N-(3,4-difluorophenyl)-5-(2-((3,4-difluorophenyl)amino)-2-oxoacetyl)-1,2,4-trimethyl-1H-pyrrole-3-carboxamide]
[1]
  CC50 at 7 days: 5 to 30 µM
[2]
  EC50: < 0.05 µM

## Cc1cc(NC(=O)c2c(C)c(C(=O)C(=O)Nc3ncc(C(F)(F)F)s3)n(C)c2C)ccc1F [Example 317, N-(4-fluoro-3-methylphenyl)-1,2,4-trimethyl-5-(2-oxo-2-((5-(trifluoromethyl)thiazol-2-yl)amino)acetyl)-1H-pyrrole-3-carboxamide]
[1]
  CC50 at 7 days: 5 to 30 µM
[2]
  EC50: > 1 µM

## Cc1nnc(NC(=O)C(=O)c2c(C)c(C(=O)Nc3ccc(F)c(C)c3)c(C)n2C)o1 [Example 305, N-(4-fluoro-3-methylphenyl)-1,2,4-trimethyl-5-(2-((5-methyl-1,3,4-oxadiazol-2-yl)amino)-2-oxoacetyl)-1H-pyrrole-3-carboxamide]
[1]
  CC50 at 7 days: > 30 µM
[2]
  EC50: > 1 µM

## Cc1noc([C@@H](C)NC(=O)C(=O)c2c(Cl)c(C(=O)Nc3ccc(F)c(C)c3)c3n2CCCC3)n1 [Example 495, (R)-2-chloro-N-(4-fluoro-3-methylphenyl)-3-(2-((1-(3-methyl-1,2,4-oxadiazol-5-yl)ethyl)amino)-2-oxoacetyl)-5,6,7,8-tetrahydroindoliizine-1-carboxamide]
[1]
  CC50 at 7 days: 5 to 30 µM
[2]
  EC50: < 0.05 µM

## Cc1cc(NC(=O)c2c(C)c(C(=O)C(=O)N[C@H]3CNC(=O)C3(C)C)n(C)c2C)ccc1F [Example 621, (R)-5-(2-((4,4-dimethyl-5-oxopyrrolidin-3-yl)amino)-2-oxoacetyl)-N-(4-fluoro-3-methylphenyl)-1,2,4-trimethyl-1H-pyrrole-3-carboxamide]
[1]
  CC50 at 7 days: > 30 µM
[2]
  EC50: < 0.05 µM

## Cc1cc(NC(=O)c2c(C)c(C(=O)C(=O)N[C@@H]3CC[C@H](O)[C@@H]3O)n(C)c2C)ccc1F [Example 152, 5-(2-(((1R,2R,3S)-2,3-dihydroxycyclopentyl)amino)-2-oxoacetyl)-N-(4-fluoro-3-methylphenyl)-1,2,4-trimethyl-1H-pyrrole-3-carboxamide]
[1]
  CC50 at 7 days: > 30 µM
[2]
  EC50: < 0.05 µM

## Cc1cc(NC(=O)c2c(C)c(C(=O)C(=O)N[C@H](C)C(F)(F)F)n(C)c2C)cnc1F [Example 165, (R)-N-(6-fluoro-5-methylpyridin-3-yl)-1,2,4-trimethyl-5-(2-oxo-2-((1,1,1-trifluoropropan-2-yl)amino)acetyl)-1H-pyrrole-3-carboxamide]
[1]
  CC50 at 7 days: > 30 µM
[2]
  EC50: < 0.05 µM

## Cc1noc([C@H](C)NC(=O)C(=O)c2c(Cl)c(C(=O)Nc3cnc(F)c(C)c3)c3n2CCC3)n1 [Example 736, (S)-6-chloro-N-(6-luoro-5-methylpyridin-3-yl)-5-(2-((1-(3-methyl-1,2,4-oxadiazol-5-yl)ethyl)amino)-2-oxoacetyl)-2,3-dihydro-1H-pyrrolizine-7-carboxamide]
[1]
  CC50 at 7 days: 5 to 30 µM
[2]
  EC50: < 0.05 µM

## Cc1cc(NC(=O)c2cc(C(=O)C(=O)NC(C)(C)C(F)(F)F)n3c2CCCC3)ccc1F [Example 409, N-(4-fluoro-3-methylphenyl)-3-(2-oxo-2-((1,1,1-trifluoro-2-methylpropan-2-yl)amino)acetyl)-5,6,7,8-tetrahydroindolizine-1-carboxamide]
[1]
  CC50 at 7 days: > 30 µM
[2]
  EC50: 0.05 to 0.499 µM

## Cc1cc(NC(=O)c2c(C)c(C(=O)C(=O)NC(C)(C)C(C)(C)O)n(C)c2C)ccc1F [Example 617, N-(4-fluoro-3-methylphenyl)-5-(2-((3-hydroxy-2,3-dimethylbutan-2-yl)amino)-2-oxoacetyl)-1,2,4-trimethyl-1H-pyrrole-3-carboxamide]
[1]
  CC50 at 7 days: > 30 µM
[2]
  EC50: < 0.05 µM

## Cc1cc(Cl)cc(NC(=O)c2c(C)c(C(=O)C(=O)N[C@H]3CC[C@@H](O)CC3)n(C)c2C)c1 [Example 685, N-(3-chloro-5-methylphenyl)-5-(2-(((1s,4s)-4-hydroxycyclohexyl)amino)-2-oxoacetyl)-1,2,4-trimethyl-1H-pyrrole-3-carboxamide]
[1]
  CC50 at 7 days: > 30 µM
[2]
  EC50: < 0.05 µM

## Cc1noc([C@H](C)NC(=O)C(=O)c2c(C)c(C(=O)Nc3ccc(F)c(C)c3)c(C)n2C)n1 [Example 215, (S)-N-(4-fluoro-3-methylphenyl)-1,2,4-trimethyl-5-(2-((1-(3-methyl-1,2,4-oxadiazol-5-yl)ethyl)amino)-2-oxoacetyl)-1H-pyrrole-3-carboxamide]
[1]
  CC50 at 7 days: > 30 µM
[2]
  EC50: < 0.05 µM

## Cc1cc(NC(=O)c2c(C)c(C(=O)C(=O)NC3(CN4CCOCC4)CCCC3)n(C)c2C)ccc1F [Example 595, N-(4-fluoro-3-methylphenyl)-1,2,4-trimethyl-5-(2-((1-(morpholinomethyl)cyclopentyl)amino)-2-oxoacetyl)-1H-pyrrole-3-carboxamide]
[1]
  CC50 at 7 days: > 30 µM
[2]
  EC50: < 0.05 µM

## Cc1cnc(NC(=O)c2c(C)c(C(=O)C(=O)NC3(CO)CCC3)n3c2CCCC3)s1 [Example 750]
[1]
  CC50 at 7 days: > 30 µM
[2]
  EC50: 0.05 to 0.499 µM

## Cc1cc(NC(=O)c2c(C)c(C(=O)C(=O)NC3(C(=O)N[C@]4(C)C[C@H](O)C4)CCOCC3)n(C)c2C)ccc1F [Example 683, N-(4-fluoro-3-methylphenyl)-5-(2-((4-(((1s,3s)-3-hydroxy-1-methylcyclobutyl)carbamoyl)tetrahydro-2H-pyran-4-yl)amino)-2-oxoacetyl)-1,2,4-trimethyl-1H-pyrrole-3-carboxamide]
[1]
  CC50 at 7 days: > 30 µM
[2]
  EC50: < 0.05 µM

## Cc1c(C(=O)Nc2ccc(F)nc2)c(C)n(C)c1C(=O)C(=O)NC(C)(C)CO [Example 120, N-(6-fluoropyridin-3-yl)-5-(2-((1-hydroxy-2-methylpropan-2-yl)amino)-2-oxoacetyl)-1,2,4-trimtehyl-1H-pyrrole-3-carboxamide]
[1]
  CC50 at 7 days: > 30 µM
[2]
  EC50: 0.5 to 1 µM

## Cc1cc(NC(=O)c2c(C)c(C(=O)C(=O)NC3CCN(C4CCOCC4)CC3)n(C)c2C)ccc1F [Example 653, N-(4-fluoro-3-methylphenyl)-1,2,4-trimethyl-5-(2-oxo-2-((1-(tetrahydro-2H-pyran-4-yl)piperidin-4-yl)mino)acetyl)-1H-pyrrole-3-carboxamide]
[1]
  CC50 at 7 days: > 30 µM
[2]
  EC50: 0.05 to 0.499 µM

## Cc1cc(NC(=O)c2c(C)c(C(=O)C(=O)NCc3nc(C(F)(F)F)no3)n(C)c2C)ccc1F [Example 243, N-(4-fluoro-3-methylphenyl)-1,2,4-trimethyl-5-(2-oxo-2-(((3-(trifluoromethyl)-1,2,4-oxadiazol-5-yl)methyl)amino)acetyl)-1H-pyrrole-3-carboxamide]
[1]
  CC50 at 7 days: 5 to 30 µM
[2]
  EC50: < 0.05 µM

## Cc1cc(NC(=O)c2c(C)c(C(=O)C(=O)N[C@H](CO)[C@@H](C)O)n(C)c2C)ccc1F [Example 143, 5-(2-(((2R,3R)-1,3-dihydroxybutan-2-yl)amino)-2-oxoacetyl)-N-(4-fluoro-3-methylphenyl)-1,2,4-trimethyl-1H-pyrrole-3-carboxamide]
[1]
  CC50 at 7 days: > 30 µM
[2]
  EC50: < 0.05 µM

## Cc1cc(NC(=O)C(=O)c2c(C)c(C(=O)Nc3ccc(F)c(C)c3)c(C)n2C)ccc1F [Example 216, N-(4-fluoro-3-methylphenyl)-5-(2-((4-fluoro-3-methylphenyl)amino)-2-oxoacetyl)-1,2,4-trimethyl-1H-pyrrole-3-carboxamide]
[1]
  CC50 at 7 days: 5 to 30 µM
[2]
  EC50: < 0.05 µM

## Cc1cc(NC(=O)c2c(C)c(C(=O)C(=O)NCCN3CCNC(=O)C3)n(C)c2C)ccc1F [Example 300, N-(4-fluoro-3-methylphenyl)-1,2,4-trimethyl-5-(2-oxo-2-((2-(3-oxopiperazin-1-yl)ethyl)amino)acetyl)-1H-pyrrole-3-carboxamide]
[1]
  CC50 at 7 days: > 30 µM
[2]
  EC50: 0.05 to 0.499 µM

## Cc1cc(NC(=O)c2c(C)c(C(=O)C(=O)N[C@H](CO)[C@@H](C)O)n(C)c2C)cnc1F [Example 185, 5-(2-(((2R,3R)-1,3-dihydroxybutan-2-yl)amino)-2-oxoacetyl)-N-(6-fluoro-5-methylpyridin-3-yl)-1,2,4-trimethyl-1H-pyrrole--3 carboxamide]
[1]
  CC50 at 7 days: > 30 µM
[2]
  EC50: 0.5 to 1 µM
